Measurements published in ChEMBL document CHEMBL1201862, “PubChem BioAssay data set” (2004).
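Results reflect a 48-hour exposure of cells in 96-well plates to compound at five concentrations. The concentration for 50% growth inhibition is given as GI50.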 The source made the active and inactive calls. Rule as the data show it: active = GI50 up to about 1.1 µM and inactive = higher.

Assays:
Assay in all cases: DTP human tumour cell line panel, 48 h
PC-3 = tested on: PC-3
OVCAR-4 = tested on: OVCAR-4
MDA-MB-231 = tested on: MDA-MB-231
K562 = tested on: K562
SK-OV-3 = tested on: SK-OV-3
SK-MEL-2 = tested on: SK-MEL-2
UACC-257 = tested on: UACC-257
MDA-N = tested on: MDA-N
NCI-H460 = tested on: NCI-H460
COLO 205 = tested on: COLO 205
MDA-MB-435 = tested on: MDA-MB-435
SK-MEL-28 = tested on: SK-MEL-28
ACHN = tested on: ACHN
SF-295 = tested on: SF-295
OVCAR-5 = tested on: OVCAR-5
M14 = tested on: M14
HCT-15 = tested on: HCT-15
RPMI-8226 = tested on: RPMI-8226
UO-31 = tested on: UO-31
TK-10 = tested on: TK-10
MCF7 = tested on: MCF7
HCT-116 = tested on: HCT-116
SK-MEL-5 = tested on: SK-MEL-5
MOLT-4 = tested on: MOLT-4
DU-145 = tested on: DU-145
786-0 = tested on: 786-0
SNB-75 = tested on: SNB-75
IGROV-1 = tested on: IGROV-1
OVCAR-8 = tested on: OVCAR-8
KM12 = tested on: KM12
UACC-62 = tested on: UACC-62
HOP-92 = tested on: HOP-92
NCI/ADR-RES = tested on: NCI/ADR-RES
SN12C = tested on: SN12C
HCC 2998 = tested on: HCC 2998
EKVX = tested on: EKVX
CAKI-1 = tested on: CAKI-1
HT-29 = tested on: HT-29
CCRF-CEM = tested on: CCRF-CEM
HL-60 = tested on: HL-60
SR = tested on: SR
RXF 393 = tested on: RXF 393
U-251 = tested on: U-251
Hs-578T = tested on: Hs-578T
NCI-H23 = tested on: NCI-H23
SNB-19 = tested on: SNB-19
HOP-62 = tested on: HOP-62
NCI-H226 = tested on: NCI-H226
LOX IMVI = tested on: LOX IMVI
A549 = tested on: A549
T47D = tested on: T47D
SF-539 = tested on: SF-539
BT-549 = tested on: BT-549
NCI-H522 = tested on: NCI-H522
SW-620 = tested on: SW-620
OVCAR-3 = tested on: OVCAR-3
A498 = tested on: A498
SF-268 = tested on: SF-268
Malme-3M = tested on: Malme-3M

C[C@@H](c1ccccc1)N1CO[C@@]2(C#Cc3ccc4c(c3)OCO4)CCC[C@@H]12
GI50 (PC-3): 12.4 µM (inactive)
GI50 (OVCAR-4): 13.8 µM (inactive)
GI50 (MDA-MB-231): 13.3 µM (inactive)
GI50 (K562): 13.8 µM (inactive)
GI50 (SK-OV-3): 17.4 µM (inactive)
GI50 (SK-MEL-2): 18.3 µM (inactive)
GI50 (UACC-257): 17.5 µM (inactive)
GI50 (MDA-N): 17.3 µM (inactive)
GI50 (NCI-H460): 13.3 µM (inactive)
GI50 (COLO 205): 15.8 µM (inactive)
GI50 (MDA-MB-435): 13.7 µM (inactive)
GI50 (SK-MEL-28): 17.5 µM (inactive)
GI50 (ACHN): > 100 µM (inactive)
GI50 (SF-295): 14.9 µM (inactive)
GI50 (OVCAR-5): 18.1 µM (inactive)
GI50 (M14): 14.8 µM (inactive)
GI50 (HCT-15): 12.6 µM
GI50 (RPMI-8226): 11.2 µM (inactive)
GI50 (UO-31): 14.4 µM (inactive)
GI50 (TK-10): 15.5 µM (inactive)
GI50 (MCF7): > 100 µM (inactive)
GI50 (HCT-116): 12 µM (inactive)
GI50 (SK-MEL-5): 13.1 µM (inactive)
GI50 (MOLT-4): 9.59 µM (inactive)
GI50 (DU-145): 16.1 µM (inactive)
GI50 (786-0): 17.8 µM (inactive)
GI50 (SNB-75): 13.9 µM (inactive)
GI50 (IGROV-1): 10.7 µM (inactive)
GI50 (OVCAR-8): 14 µM (inactive)
GI50 (KM12): 15.7 µM (inactive)
GI50 (UACC-62): > 100 µM (inactive)
GI50 (HOP-92): 5.3 µM (inactive)
GI50 (NCI/ADR-RES): 14.7 µM (inactive)
GI50 (SN12C): 17.1 µM (inactive)
GI50 (HCC 2998): 17.9 µM (inactive)
GI50 (EKVX): 20.3 µM (inactive)
GI50 (CAKI-1): 16.3 µM (inactive)
GI50 (HT-29): 16.6 µM (inactive)
GI50 (CCRF-CEM): 19.8 µM (inactive)
GI50 (HL-60): 7.94 µM (inactive)
GI50 (SR): 8.67 µM (inactive)
GI50 (RXF 393): 11.6 µM (inactive)
GI50 (U-251): 13.6 µM (inactive)
GI50 (Hs-578T): 15.9 µM (inactive)
GI50 (NCI-H23): 14.7 µM (inactive)
GI50 (SNB-19): 16.1 µM (inactive)
GI50 (HOP-62): 15.8 µM (inactive)
GI50 (NCI-H226): 20.6 µM (inactive)
GI50 (LOX IMVI): 12.7 µM (inactive)
GI50 (A549): 14.8 µM (inactive)
GI50 (T47D): 16.4 µM (inactive)

O=C(NI1OC(=O)c2ccccc21)c1ccc(Cl)cc1
GI50 (PC-3): > 100 µM (inactive)
GI50 (OVCAR-4): > 100 µM (inactive)
GI50 (MDA-MB-231): > 100 µM (inactive)
GI50 (K562): 28.4 µM (inactive)
GI50 (SK-OV-3): > 100 µM (inactive)
GI50 (SK-MEL-2): > 100 µM (inactive)
GI50 (UACC-257): > 100 µM (inactive)
GI50 (NCI-H460): > 100 µM (inactive)
GI50 (COLO 205): > 100 µM (inactive)
GI50 (MDA-MB-435): > 100 µM (inactive)
GI50 (SK-MEL-28): > 100 µM (inactive)
GI50 (ACHN): > 100 µM (inactive)
GI50 (SF-295): > 100 µM (inactive)
GI50 (SF-539): > 100 µM (inactive)
GI50 (OVCAR-5): > 100 µM (inactive)
GI50 (M14): > 100 µM (inactive)
GI50 (HCT-15): 96.6 µM
GI50 (RPMI-8226): > 100 µM (inactive)
GI50 (UO-31): 43.2 µM (inactive)
GI50 (TK-10): > 100 µM (inactive)
GI50 (MCF7): > 100 µM (inactive)
GI50 (HCT-116): > 100 µM (inactive)
GI50 (SK-MEL-5): > 100 µM (inactive)
GI50 (DU-145): > 100 µM (inactive)
GI50 (786-0): > 100 µM (inactive)
GI50 (SNB-75): > 100 µM (inactive)
GI50 (IGROV-1): > 100 µM (inactive)
GI50 (OVCAR-8): > 100 µM (inactive)
GI50 (KM12): > 100 µM (inactive)
GI50 (UACC-62): 51.6 µM (inactive)
GI50 (HOP-92): > 100 µM (inactive)
GI50 (NCI/ADR-RES): > 100 µM (inactive)
GI50 (SN12C): > 100 µM (inactive)
GI50 (HCC 2998): 76.2 µM (inactive)
GI50 (EKVX): > 100 µM (inactive)
GI50 (BT-549): > 100 µM (inactive)
GI50 (NCI-H522): 14.1 µM (inactive)
GI50 (CAKI-1): > 100 µM (inactive)
GI50 (HT-29): > 100 µM (inactive)
GI50 (CCRF-CEM): 85.5 µM (inactive)
GI50 (SW-620): 34.4 µM (inactive)
GI50 (HL-60): > 100 µM (inactive)
GI50 (RXF 393): > 100 µM (inactive)
GI50 (U-251): 45.7 µM (inactive)
GI50 (OVCAR-3): > 100 µM (inactive)
GI50 (NCI-H23): > 100 µM (inactive)
GI50 (A498): > 100 µM (inactive)
GI50 (HOP-62): > 100 µM (inactive)
GI50 (NCI-H226): 60.4 µM (inactive)
GI50 (SF-268): > 100 µM (inactive)
GI50 (LOX IMVI): > 100 µM (inactive)
GI50 (A549): > 100 µM (inactive)
GI50 (T47D): > 100 µM (inactive)

CN(C)CCCOC(=O)C(O)(Cc1ccccc1)C1CC1 (stereo unspecified)
GI50 (PC-3): > 100 µM (inactive)
GI50 (OVCAR-4): > 100 µM (inactive)
GI50 (MDA-MB-231): > 100 µM (inactive)
GI50 (K562): > 100 µM (inactive)
GI50 (SK-OV-3): > 100 µM (inactive)
GI50 (SK-MEL-2): > 100 µM (inactive)
GI50 (UACC-257): > 100 µM (inactive)
GI50 (MDA-N): > 100 µM (inactive)
GI50 (NCI-H460): > 100 µM (inactive)
GI50 (COLO 205): > 100 µM (inactive)
GI50 (MDA-MB-435): > 100 µM (inactive)
GI50 (SK-MEL-28): > 100 µM (inactive)
GI50 (ACHN): > 100 µM (inactive)
GI50 (SF-295): > 100 µM (inactive)
GI50 (SF-539): > 100 µM (inactive)
GI50 (OVCAR-5): > 100 µM (inactive)
GI50 (M14): > 100 µM (inactive)
GI50 (HCT-15): > 100 µM
GI50 (RPMI-8226): > 100 µM (inactive)
GI50 (TK-10): > 100 µM (inactive)
GI50 (MCF7): > 100 µM (inactive)
GI50 (HCT-116): > 100 µM (inactive)
GI50 (SK-MEL-5): > 100 µM (inactive)
GI50 (MOLT-4): > 100 µM (inactive)
GI50 (DU-145): > 100 µM (inactive)
GI50 (786-0): > 100 µM (inactive)
GI50 (SNB-75): 79.8 µM (inactive)
GI50 (IGROV-1): > 100 µM (inactive)
GI50 (OVCAR-8): > 100 µM (inactive)
GI50 (KM12): > 100 µM (inactive)
GI50 (UACC-62): > 100 µM (inactive)
GI50 (HOP-92): > 100 µM (inactive)
GI50 (NCI/ADR-RES): > 100 µM (inactive)
GI50 (SN12C): > 100 µM (inactive)
GI50 (HCC 2998): > 100 µM (inactive)
GI50 (EKVX): > 100 µM (inactive)
GI50 (NCI-H522): > 100 µM (inactive)
GI50 (CAKI-1): > 100 µM (inactive)
GI50 (HT-29): > 100 µM (inactive)
GI50 (CCRF-CEM): > 100 µM (inactive)
GI50 (SW-620): > 100 µM (inactive)
GI50 (HL-60): > 100 µM (inactive)
GI50 (SR): > 100 µM (inactive)
GI50 (RXF 393): > 100 µM (inactive)
GI50 (U-251): > 100 µM (inactive)
GI50 (OVCAR-3): > 100 µM (inactive)
GI50 (Hs-578T): > 100 µM (inactive)
GI50 (NCI-H23): > 100 µM (inactive)
GI50 (A498): > 100 µM (inactive)
GI50 (SNB-19): > 100 µM (inactive)
GI50 (HOP-62): > 100 µM (inactive)
GI50 (NCI-H226): > 100 µM (inactive)
GI50 (SF-268): > 100 µM (inactive)
GI50 (LOX IMVI): > 100 µM (inactive)
GI50 (Malme-3M): > 100 µM (inactive)
GI50 (A549): > 100 µM (inactive)
GI50 (T47D): > 100 µM (inactive)
